Results: ChEMBL document CHEMBL3580650, “Synthesis and Initial in Vivo Studies with [(11)C]SB-216763: The First Radiolabeled Brain Penetrative Inhibitor of GSK-3” (ACS Med Chem Lett, 2015)

What was measured:
Brain [1] = assay: Drug uptake in brain of Wistar rat at 48.8 MBq, iv administered as bolus dose for 30 secs measured at 3 mins post wash out by MicroPET image analysis; format: ADME, organism-based; details: in vivo, 0.05 h
Brain [2] = assay: Drug uptake in brain of rhesus monkey at 89 +/- 3 MBq, iv administered as bolus dose for 1 min measured at 5 mins post wash out by MicroPET image analysis; format: ADME, organism-based, Macaca mulatta; details: in vivo
Striatum [3] = assay: Drug uptake in striatum of Wistar rat brain at 48.8 MBq, iv administered as bolus dose for 30 secs measured over 120 mins post injection by MicroPET image analysis; format: ADME, organism-based; details: in vivo
Thalamus = assay: Drug uptake in thalamus of Wistar rat brain at 48.8 MBq, iv administered as bolus dose for 30 secs measured over 120 mins post injection by MicroPET image analysis; format: ADME, organism-based; details: in vivo
Cortex = assay: Drug uptake in cortex of Wistar rat brain at 48.8 MBq, iv administered as bolus dose for 30 secs measured over 120 mins post injection by MicroPET image analysis; format: ADME, organism-based; details: in vivo
Cerebellum = assay: Drug uptake in cerebellum of Wistar rat brain at 48.8 MBq, iv administered as bolus dose for 30 secs measured over 120 mins post injection by MicroPET image analysis; format: ADME, organism-based; details: in vivo
[4] = Drug uptake in thalamus of rhesus monkey brain at 89 +/- 3 MBq, iv administered as bolus dose for 1 min measured over 90 mins post injection by MicroPET image analysis; format: ADME, organism-based, Macaca mulatta; details: in vivo
Striatum [5] = assay: Drug uptake in striatum of rhesus monkey brain at 89 +/- 3 MBq, iv administered as bolus dose for 1 min measured over 90 mins post injection by MicroPET image analysis; format: ADME, organism-based, Macaca mulatta; details: in vivo
[6] = Drug uptake in cortex of rhesus monkey brain at 89 +/- 3 MBq, iv administered as bolus dose for 1 min measured over 90 mins post injection by MicroPET image analysis; format: ADME, organism-based, Macaca mulatta; details: in vivo
[7] = Drug uptake in cerebellum of rhesus monkey brain at 89 +/- 3 MBq, iv administered as bolus dose for 1 min measured over 90 mins post injection by MicroPET image analysis; format: ADME, organism-based, Macaca mulatta; details: in vivo

[11CH3]n1cc(C2=C(c3ccc(Cl)cc3Cl)C(=O)NC2=O)c2ccccc21
SUV (Brain [1]): 2.5 | SUV (Brain [2]): 1.9 | Drug uptake (Striatum [3]): Active | Drug uptake (Thalamus): Active | Drug uptake (Cortex): Active | Drug uptake (Cerebellum): Active | Drug uptake [4]: Active | Drug uptake (Striatum [5]): Active | Drug uptake [6]: Active | Drug uptake [7]: Active
